Article PMC4736406 (Stem Cells International, 2016)
Counter-ions that a name gives are not always drawn. Values belong to the molecule of their own block, whether it stands above or below them.

How the values were obtained:
HepG2 cells = experiment: Image based high content analysis (HCA), fixed and live assays, in HepG2
Experimental: Briefly, the cells were grown in DMEM supplemented with 10% heat inactivated FBS, 1% penicillin-streptomycin (PEST), 1% sodium pyruvate, and 1% nonessential amino acids. Cells were passaged at 1 : 8 or 1 : 6 every 3-4 days when they reach 75–80% confluence. Seeding density was optimized for HCA application to ensure that the cells were in a monolayer (5000 cells per well in 96-well plates) for precise imaging. The cells were grown for 48 h to attach and stabilize. The experiments performed with HepG2 cells were designed to ensure that each assay was performed with cells in a similar growth phase.
Each concentration was assayed in triplicate wells. […] The experimental process is illustrated in Figure 2.
And finally, TOTO-3 was used for assessing PMP.
The cells were imaged using an Olympus ScanR system.
All other fluorescence signals were considered as subobjects.

[1] = test system: hiPSC derived hepatocytes (hiPS-HEP); experiment: Image based high content analysis (HCA), fixed and live assays, in hiPSC derived hepatocytes; details: hiPSC derived hepatocytes; negative control substance;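 also: hiPS-HEP obtained from ChiPSC4 through definitive endoderm under serum- and feeder-free conditions in 96-well plates, fluorescence imaging, each concentration run in triplicate wells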
Text: (§1) For hepatic differentiation, a serum- and feeder-free procedure recapitulating liver development was applied. First, ChiPSC4 was guided to differentiate into definitive endoderm using the Cellartis DE Diff Kit (Takara Bio Europe AB; Y30030), containing complete media and coating solution for differentiation of hPSC to DE cells in 2D culture. On day 7 of differentiation, the DE cells were enzymatically dissociated and reseeded into fibronectin coated 96-well plates. […] Wells of 96-well plates were coated by adding fibronectin solution 0.15 mL per cm^2 to the wells and let to incubate for >60 min at RT. […] Next, the cell suspension was centrifuged for 5 min at 300 g at RT, the supernatant was removed, and the cell pellet was resuspended in warm Hepatocyte Thawing and Seeding medium (Cellartis Hepatocyte Diff Kit; Takara Bio Europe AB; Y30050). Prior to seeding of cells, excess coating was removed and 150 K DE cells/cm^2 were seeded in the 96-well plates. On days 9 and 11 (counted from the start of ChiPSC4 differentiation), medium was changed using Hepatocyte Progenitor Medium (Cellartis Hepatocyte Diff Kit).
(§2) The cells were treated for 48 h with compounds at varying concentrations (half log dilution from the top concentration). […] The stock solutions were prepared in DMSO or water and were diluted in culture medium to obtain the final concentration. Each concentration was assayed in triplicate wells. Vehicle control wells were included and the final DMSO concentration in the medium never exceeded 0.5% (v/v). Each batch had two plates each for fixed and live assays.
(§3) LipidTOX Green neutral lipids and LipidTox Red phospholipidosis were used for identifying neutral lipid and phospholipid formation within the cells. MMP changes (Δψm) within the cell were measured using MitoTracker orange. Carboxy-H2DCFDA (6-carboxy-2′,7′-dichlorodihydrofluorescein diacetate) an acetylated fluorescent was used for measuring ROS. And finally, TOTO-3 was used for assessing PMP.
(§4) The fluorescence probes were grouped into two sets according to their optical compatibility and requirement of fixed or live material. […] The fluorescent probes for neutral lipids and phospholipids required the cells to be fixed and were assigned to the fixed assay. The probes MitoTracker orange, carboxy-H2DCFDA, and TOTO-3 were assigned to the live assay.
(§5) Following compound incubation, probes were administered to the cultures of the live assay. […] After incubation for 45 min at optimal cell culture conditions, the cells were changed to phenol red (PR) free medium for live cell imaging. For fixed assay, LipidTox Red probe was added with the compounds, and after 48 h the cells were fixed in 4% PFA supplemented with 1X Hoechst stain for 30 min at room temperature. Subsequently, cells were washed with PBS^+/+ and 1X LipidTOX Green stain diluted in PBS^+/+ was incubated with the cells for 30 min at room temperature. The plates were imaged without removing the buffer with probe.
(§6) The cells were imaged using an Olympus ScanR system. Prior to image acquisition, the heating system and CO2 gas flow were started to ensure optimal conditions in the ScanR chamber for live cell analysis. The incubator was set to 37°C with 5% CO2 and relative humidity of 90%. […] 20X long distance objective with NA 0.45 was used to image distinct fluorescence channels. In order to cover the entire well and also to capture maximum cell events sixteen fields per well (4 × 4 tile grid spread equally) were imaged. The channel exposure time for LipidTOX Green, LipidTOX Red, MitoTracker orange, and carboxy-H2DCFHDA were set based on the fluorescence of the negative control wells and were set constant within each plate. Exposure time for Hoechst and TOTO-3 was set in the range of 1–10 ms depending on cellular fluorescence intensity.
(§7) The acquired images were analyzed using ScanR analysis program from Olympus.

[2] = test system: hiPSC derived hepatocytes (hiPS-HEP); details: human, 48 h;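 also: hiPS-HEP obtained from ChiPSC4 through definitive endoderm under serum- and feeder-free conditions in 96-well plates, fluorescence imaging, each concentration run in triplicate wells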
Text: as §1, §2, §3, §4, §5, §6, §7

[3] = HepG2, fixed, at 100 µM (Amiodarone HCL at […])
[4] = HepG2, fixed assay, 48 h, p<0.05 vs control
[5] = HepG2, live assay, 48 h, p<0.05 vs control
[6] = HepG2, live, at 100 µM (Amiodarone HCL at […])

Structure (SMILES): O=C([O-])CC(O)(CC(=O)[O-])C(=O)[O-].[Na+].[Na+].[Na+] [Sodium citrate, sodium citrate]
Degree of injury score, Phospholipids Area (HepG2 cells; [3]): 0 (variation lower than 25%) | Degree of injury score, Phospholipids C (HepG2 cells; [3]): 1 (variation 25-150%) | Degree of injury score, Phospholipids MI (HepG2 cells; [3]): 0 (variation lower than 25%) | Score for phospholipidosis (HepG2 cells; HepG2 cultures, at 100 μM): false positive score | Effects on all parameters measured over the whole dose range [1]: No significant effects

IC50/EC50 Nucleus Area (HepG2 cells; HepG2, fixed assay, 48 h): 39.5 µM | IC50/EC50 Nucleus Cell count (HepG2 cells; HepG2, fixed assay, 48 h): 7.6 µM | IC50/EC50 Nucleus MI (HepG2 cells; HepG2, fixed assay, 48 h): 140 µM | IC50/EC50 Steatosis Area (HepG2 cells; HepG2, fixed assay, 48 h): 30.6 µM | IC50/EC50 Steatosis Count (HepG2 cells; HepG2, fixed assay, 48 h): 19.5 µM | IC50/EC50 Steatosis MI (HepG2 cells; HepG2, fixed assay, 48 h): 23.6 µM | MEC, steatosis area (S, A) (HepG2 cells; [4]): 125 µM | MEC, steatosis mean intensity (S, MI) (HepG2 cells; [4]): 39.5 µM | IC50/EC50 MMP MI (HepG2 cells; HepG2, live assay, 48 h): 345 µM | IC50/EC50 Nucleus Area (HepG2 cells; HepG2, live assay, 48 h): 29.1 µM | IC50/EC50 Nucleus Cell count (HepG2 cells; HepG2, live assay, 48 h): 7.2 µM | IC50/EC50 Nucleus MI (HepG2 cells; HepG2, live assay, 48 h): 25.0 µM | IC50/EC50 PMP MI (HepG2 cells; HepG2, live assay, 48 h): 147 µM | IC50/EC50 ROS MI (HepG2 cells; HepG2, live assay, 48 h): 4.6 µM | MEC, MMP mean intensity (HepG2 cells; [5]): 12.5 µM | MEC, ROS mean intensity (HepG2 cells; [5]): 12.5 µM
Structure (SMILES): CCCCc1oc2ccccc2c1C(=O)c1cc(I)c(OCCN(CC)CC)c(I)c1 [Amiodarone, amiodarone hydrochloride]
Detection of phospholipid accumulation / phospholipidosis (HepG2 cells; HepG2): false negative prediction | Category based on degree of injury (HepG2 cells; HepG2, […] for amiodarone, 100 μM for the others): severely | Severity (sum of individual scores, degree of injury) (HepG2 cells; HepG2, at 100 µM (Amiodarone HCL at […])): 20 | IC50/EC50 Phospholipidosis Area (HepG2 cells; HepG2, fixed assay, 48 h): 7.3 µM | IC50/EC50 Phospholipidosis Count (HepG2 cells; HepG2, fixed assay, 48 h): 8.9 µM | IC50/EC50 Phospholipidosis MI (HepG2 cells; HepG2, fixed assay, 48 h): 35.6 µM | Minimal effective concentration (MEC), viability cell count (V, CC) (HepG2 cells; [4]): 4 µM | Degree of injury score, Neutral Lipids Area (HepG2 cells; [3]): 0 (variation lower than 25%) | Degree of injury score, Neutral Lipids C (HepG2 cells; [3]): 2 (variation 150-300%) | Degree of injury score, Neutral Lipids MI (HepG2 cells; [3]): 3 (variation >300%) | Degree of injury score, Nucleus Area (HepG2 cells; [3]): 1 (variation ± 20-40%) | Degree of injury score, Nucleus CC (HepG2 cells; [3]): 3 (variation ± 60-100%) | Degree of injury score, Nucleus MI (HepG2 cells; [3]): 1 (variation ± 20-40%) | Degree of injury score, Phospholipids Area (HepG2 cells; [3]): 1 (variation 25-150%) | Degree of injury score, Phospholipids C (HepG2 cells; [3]): 0 (variation lower than 25%) | Degree of injury score, Phospholipids MI (HepG2 cells; [3]): 0 (variation lower than 25%) | Degree of injury (category) (HepG2 cells; HepG2, isomolar concentration of 100 µM ([…] for amiodarone)): Severe hepatotoxicity (severely toxic (≥15)) | MEC, viability cell count (V, CC) (HepG2 cells; [5]): 12.5 µM | Degree of injury score, MMP MI (HepG2 cells; [6]): 1 (variation ± 20-40%) | Degree of injury score, Nucleus Area (HepG2 cells; [6]): 1 (variation ± 20-40%) | Degree of injury score, Nucleus CC (HepG2 cells; [6]): 3 (variation ± 60-100%) | Degree of injury score, Nucleus MI (HepG2 cells; [6]): 2 (variation ± 40-60%) | Degree of injury score, PMP MI (HepG2 cells; [6]): 1 (variation ± 20-40%) | Degree of injury score, ROS MI (HepG2 cells; [6]): 1 (variation ± 20-40%) | Concentration below which no cytotoxic effects were displayed [2]: 12.5 µM
